Assay results taken from US4689339A, “4-dihydroinden-2-yl-, 4-tetrahydronaphth-2-yl-, and 4-dihydrobenzofuran-2-ylimidazoles, useful to block α2 -adrenergic receptors” (Farmos Yhtyma oy, priority 1984, dated 1987).
Like-named read-outs stand apart in the source and are kept apart here.

Legend:
[1] = molecular target: T1, α2-receptors (Mus musculus, UniProt Q01338); assay: α2-antagonism in vitro, isolated electrically stimulated mouse vas deferens (vs detomidine); type: biochemical
T1 construct: isolated, electrically stimulated mouse vas deferens preparation; from tissue; host or cells: mouse vas deferens
T1 sequence (Q01338 1-465): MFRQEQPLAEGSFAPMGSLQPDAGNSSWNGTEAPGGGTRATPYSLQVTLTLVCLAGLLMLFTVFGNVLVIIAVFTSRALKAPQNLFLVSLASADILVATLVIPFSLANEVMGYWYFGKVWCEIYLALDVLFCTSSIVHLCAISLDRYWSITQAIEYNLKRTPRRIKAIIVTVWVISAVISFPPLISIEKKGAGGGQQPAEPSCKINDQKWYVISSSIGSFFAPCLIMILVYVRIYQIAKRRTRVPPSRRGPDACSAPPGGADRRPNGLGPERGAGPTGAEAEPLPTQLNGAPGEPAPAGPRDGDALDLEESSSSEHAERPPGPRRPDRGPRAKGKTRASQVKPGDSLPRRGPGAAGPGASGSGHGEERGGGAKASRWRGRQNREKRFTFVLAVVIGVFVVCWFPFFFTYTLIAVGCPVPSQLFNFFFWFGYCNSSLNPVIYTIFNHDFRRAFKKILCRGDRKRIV
Protocol: α2 -antagonism was determined by means of isolated, electrically stimulated mouse vas deferens preparation (Marshall et al., Br. J. Pharmac. 62, 147, 151, 1978). In this model, α2 -agonist (detomidine) blocks electrically stimulated muscular contractions and the effect of the α2 -antagonist is seen by administering it prior to the agonist and by determining its pA2 value. Known α2 -antagonists like yohimbine and rauwolscine were used as reference substances.

[2] = molecular target: T2, α2-receptors of the central nervous system (Rattus norvegicus, UniProt P22909); assay: α2-antagonism in vivo, reversal of detomidine-induced mydriasis in anaesthetized rat; settings: iv
T2 construct: In anaesthetized rat, a standard dose of detomidine was administered intravenously; from tissue; host or cells: whole anaesthetized rat, in vivo (central nervous system)
T2 sequence (P22909 1-465): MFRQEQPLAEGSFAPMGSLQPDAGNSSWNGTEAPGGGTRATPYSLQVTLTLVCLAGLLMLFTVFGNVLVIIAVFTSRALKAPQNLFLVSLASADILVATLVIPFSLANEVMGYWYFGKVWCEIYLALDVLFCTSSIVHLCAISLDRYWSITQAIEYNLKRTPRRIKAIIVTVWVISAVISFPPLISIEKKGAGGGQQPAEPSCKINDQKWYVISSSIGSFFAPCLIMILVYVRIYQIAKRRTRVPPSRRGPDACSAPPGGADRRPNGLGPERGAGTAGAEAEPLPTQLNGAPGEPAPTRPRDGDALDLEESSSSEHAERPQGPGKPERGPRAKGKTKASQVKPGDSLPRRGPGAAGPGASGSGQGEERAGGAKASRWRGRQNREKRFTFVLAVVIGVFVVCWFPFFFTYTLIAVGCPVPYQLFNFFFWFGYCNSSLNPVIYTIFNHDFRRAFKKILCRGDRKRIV
Protocol: The central α2 -blocking effect of the studied substances under in vivo conditions was studied using two methods. First, it is known that in the rat α2 -agonists induce dilatation of the pupil (mydriasis) which effect is transmitted via α2 -receptors of the central nervous system. In anaesthetized rat, a standard dose of detomidine was administered intravenously. Thereafter increasing doses of the studied antagonist were injected intravenously and the reversal of detomidine-induced mydriasis was followed. The ED50 value of the antagonist, i.e. the dose producing a 50 percent reversal, was determined.

[3] = molecular target: α1-receptors; assay: α1-agonism in vitro, isolated anococcygeus muscle (rat); type: biochemical; settings: negative logarithm of the molar concentration producing 50 percent of maximal contraction
Protocol: (§1) To obtain information also on the selectivity of the antagonist between α1 - and α2 -receptors, its ability to inhibit or stimulate α1 -receptors was determined by means of isolated anococcygeus muscle (rat). […] To determine α-antagonism, muscular contraction was induced by phenylephrine and the pA2 value of the studied compound was determined as above. α1 -agonist effect is presented as the pD2 value (negative logarithm of the molar concentration of the compound producing 50 percent of maximal contraction).

[4] = system: α2-receptor; assay: α2-antagonism in the central nervous system, inhibition of detomidine induced potentiation of barbiturate sleeping time in mice; type: in vivo, mouse; settings: detomidine 150 μg/kg ip
Excerpt: α2 -antagonism in the central nervous system was secondly studied by following the ability of the antagonist to inhibit detomidine induced sedation in the mouse. This was done by measuring the increase of barbiturate sleeping time induced by detomidine. This effect of detomidine is known to be induced through α2 -receptor activation. The antagonist can be studied by administering it prior to detomidine.

[5] = molecular target: α1-receptors; assay: α1-antagonism in vitro, isolated anococcygeus muscle (rat), contraction induced by phenylephrine; type: biochemical
Protocol: as §1

[6] = antagonist given prior to detomidine, read-out: α2-antagonism (pA2 vs detomidine) mouse vas deferens (converted)

SMILES | ED50, 50 percent reversal of detomidine-induced mydriasis ([2]; rat, in vivo) [mg/kg] | α1-agonism (pD2) rat anococcygeus [3] | Kb [1] [µM] | also measured
Brc1ccc2c(c1)CC(c1cnc[nH]1)O2 (centres unmarked) [Compound III] | 0.32 | 4.5 |  | Kb [1, 6]: 0.631 µM
c1ccc2c(c1)CC(c1cnc[nH]1)O2 (centres unmarked) [Compound II] | 0.07 | 5.5 | 0.0316 | Effect on detomidine induced potentiation of the barbiturate sleeping time (± percent of controls) ([4]; dose 0.1 mg/kg): -5% of controls; Effect on detomidine induced potentiation of the barbiturate sleeping time (± percent of controls) ([4]; dose 0.3 mg/kg): -30% of controls; Effect on detomidine induced potentiation of the barbiturate sleeping time (± percent of controls) ([4]; dose 1 mg/kg): -60% of controls; Effect on detomidine induced potentiation of the barbiturate sleeping time (± percent of controls) ([4]; dose 3 mg/kg): -70% of controls; Effect on detomidine induced potentiation of the barbiturate sleeping time (± percent of controls) ([4]; dose 10 mg/kg): -85% of controls
Cc1ccc2c(c1)CC(c1cnc[nH]1)C2 (centres unmarked) [Compound IV] | 0.02 | 6.5 | 0.02 | 
c1ccc2c(c1)CC(c1cnc[nH]1)C2 [Compound I] | 0.003 | 6.5 | 0.00158 | Effect on detomidine induced potentiation of the barbiturate sleeping time (± percent of controls) ([4]; dose 0.1 mg/kg): -20% of controls; Effect on detomidine induced potentiation of the barbiturate sleeping time (± percent of controls) ([4]; dose 0.3 mg/kg): -60% of controls; Effect on detomidine induced potentiation of the barbiturate sleeping time (± percent of controls) ([4]; dose 1 mg/kg): -100% of controls
Cc1ccc2c(c1)C(C)C(c1cnc[nH]1)C2 (centres unmarked) [Compound VIII] | 0.1 |  | 0.0251 | α1-antagonism (pA2 vs phenylephrine) rat anococcygeus [5]: 5.9
Cc1cccc2c1CC(c1cnc[nH]1)C2C (centres unmarked) [Compound VII] | 0.1 | 6.0 | 0.0251 | 
CC1c2ccccc2CC1c1cnc[nH]1 (centres unmarked) [Compound VI] | 0.1 | 6.5 | 0.002 | 
CC1(c2cnc[nH]2)Cc2ccccc2C1 [Compound XII] | 0.003 | 5.5 |  | Kb [1, 6]: 0.00794 µM
c1ccc2c(c1)CCC(c1cnc[nH]1)C2 (centres unmarked) [Compound XVIII] |  | 6.0 | 0.02 | 
CCC1(c2cnc[nH]2)Cc2ccc(C)cc2C1 (centres unmarked) [Compound XVII] |  |  |  | Kb [1, 6]: 0.251 µM
CCC1(c2cnc[nH]2)Cc2ccccc2C1 [Compound XV] |  |  | 0.00501 | 
Cc1ccc(N(CC2=NCCN2)c2cccc(O)c2)cc1 [Phentolamine, reference compound] |  |  |  | ED50, 50 percent reversal of detomidine-induced mydriasis ([2]; anaesthetized rat, standard iv dose of detomidine): 1 mg/kg
CNC[C@H](O)c1cccc(O)c1 [Phenylephrine, reference compound] |  | 6.5 |  | 
COc1cc2nc(N3CCN(C(=O)c4ccco4)CC3)nc(N)c2cc1OC [Prazosin] |  |  |  | Effect on detomidine induced potentiation of the barbiturate sleeping time (± percent of controls) ([4]; dose 0.1 mg/kg): 0% of controls; Effect on detomidine induced potentiation of the barbiturate sleeping time (± percent of controls) ([4]; dose 0.3 mg/kg): 0% of controls; Effect on detomidine induced potentiation of the barbiturate sleeping time (± percent of controls) ([4]; dose 1 mg/kg): 0% of controls; Effect on detomidine induced potentiation of the barbiturate sleeping time (± percent of controls) ([4]; dose 3 mg/kg): +16% of controls; Effect on detomidine induced potentiation of the barbiturate sleeping time (± percent of controls) ([4]; dose 10 mg/kg): +18% of controls
COC(=O)[C@H]1[C@H]2C[C@H]3c4[nH]c5ccccc5c4CCN3C[C@H]2CC[C@@H]1O [Rauwolscine, reference compound] |  |  | 0.00794 | α1-antagonism (pA2 vs phenylephrine) rat anococcygeus [5]: 6.3
COC(=O)[C@@H]1[C@H]2C[C@H]3c4[nH]c5ccccc5c4CCN3C[C@@H]2CC[C@@H]1O [Yohimbine] | 0.2 |  | 0.00794 | Effect on detomidine induced potentiation of the barbiturate sleeping time (± percent of controls) ([4]; dose 0.1 mg/kg): 0% of controls; Effect on detomidine induced potentiation of the barbiturate sleeping time (± percent of controls) ([4]; dose 0.3 mg/kg): -18% of controls; Effect on detomidine induced potentiation of the barbiturate sleeping time (± percent of controls) ([4]; dose 1 mg/kg): -64% of controls; Effect on detomidine induced potentiation of the barbiturate sleeping time (± percent of controls) ([4]; dose 3 mg/kg): -70% of controls; Effect on detomidine induced potentiation of the barbiturate sleeping time (± percent of controls) ([4]; dose 10 mg/kg): -100% of controls; α1-antagonism (pA2 vs phenylephrine) rat anococcygeus [5]: 6.6
